Measured values published in paper PMC11882969 (Nature Communications, 2025).
“And” between values parts separate entries of the source, which are not always exact repeats. Identical values can stand only once. Like-named read-outs stand apart in the source and are kept apart here.

Experiments:
CB1 (rCB1) = CB1 (rCB1) (Rattus norvegicus, UniProt P20272); test: Radioligand competition binding, [3H]-CP-55,940, rat brain membranes
hCB1 = hCB1 (Homo sapiens, UniProt P21554); test: bioSensAll ebBRET signaling profiling, hCB1; format: cell-based; set-up: host or cells: HEK293SL cells, transient PEI transfection; conditions: for Gi1 hCB1 response: Gi1 biosensor; for Gi1 hCB1 / GoB hCB1: single replicate values, FigS6a; for Emax [95% CI]: normalized to CP-55,940; for EC50: read-out: EC50 [95% CI]
hCB1, sequence (P21554 whole entry): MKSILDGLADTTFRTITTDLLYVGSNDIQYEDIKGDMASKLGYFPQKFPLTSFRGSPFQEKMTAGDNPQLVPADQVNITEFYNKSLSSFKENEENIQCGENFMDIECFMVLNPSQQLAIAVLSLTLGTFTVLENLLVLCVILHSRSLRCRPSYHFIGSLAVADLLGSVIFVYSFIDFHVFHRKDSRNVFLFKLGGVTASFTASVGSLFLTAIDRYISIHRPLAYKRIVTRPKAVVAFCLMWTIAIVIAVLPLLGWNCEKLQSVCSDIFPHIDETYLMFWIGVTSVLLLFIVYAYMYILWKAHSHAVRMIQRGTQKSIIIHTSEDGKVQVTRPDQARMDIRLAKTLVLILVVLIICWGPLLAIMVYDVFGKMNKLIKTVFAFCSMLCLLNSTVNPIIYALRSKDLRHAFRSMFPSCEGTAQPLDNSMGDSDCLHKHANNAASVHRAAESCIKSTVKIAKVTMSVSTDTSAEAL

CB1 (rCB1), sequence (P20272 whole entry): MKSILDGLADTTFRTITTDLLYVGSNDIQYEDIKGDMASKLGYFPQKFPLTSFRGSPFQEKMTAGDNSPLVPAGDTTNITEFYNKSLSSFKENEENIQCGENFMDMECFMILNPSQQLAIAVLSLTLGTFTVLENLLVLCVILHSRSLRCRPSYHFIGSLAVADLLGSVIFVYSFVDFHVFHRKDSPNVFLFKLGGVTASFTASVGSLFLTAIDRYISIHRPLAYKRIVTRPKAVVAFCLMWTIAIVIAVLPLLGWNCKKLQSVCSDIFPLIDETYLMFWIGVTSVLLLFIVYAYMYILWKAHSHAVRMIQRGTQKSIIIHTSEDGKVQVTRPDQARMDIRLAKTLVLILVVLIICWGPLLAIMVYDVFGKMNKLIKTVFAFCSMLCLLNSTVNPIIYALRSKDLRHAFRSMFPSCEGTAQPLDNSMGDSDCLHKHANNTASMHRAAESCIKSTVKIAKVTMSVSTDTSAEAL

COC(=O)[C@@H]1[C@@H]2CC[C@@H]2CN1C(=O)c1cc(C)n(-c2cccc(C(F)(F)F)c2)n1 [‘6448]
pKi [95% CI] (CB1 (rCB1); rCB1): 6.1 [5.9 – 6.3] | Ki (CB1 (rCB1); read-out: Ki [95% CI], rCB1, [3H]-CP-55,940): 866 nM | Gi1 hCB1 response (hCB1; Log [Compound] (M) -4.22186): 143.498 | Gi1 hCB1 response (hCB1; Log [Compound] (M) -4.63927): 116.752 | Gi1 hCB1 response (hCB1; Log [Compound] (M) -5.05788): 114.537 | Gi1 hCB1 response (hCB1; Log [Compound] (M) -5.47381): 101.197 | Gi1 hCB1 response (hCB1; Log [Compound] (M) -5.89285): 80.4274 | Gi1 hCB1 response (hCB1; Log [Compound] (M) -6.31878): 64.6261 | Gi1 hCB1 response (hCB1; Log [Compound] (M) -6.72585): 36.0226 | Gi1 hCB1 response (hCB1; Log [Compound] (M) -7.14267): 33.4711 | Gi1 hCB1 response (hCB1; Log [Compound] (M) -7.55284): 2.182 | Gi1 hCB1 response (hCB1; Log [Compound] (M) -8): -1.914 | Gi1 hCB1 response (hCB1; Log [Compound] (M) -8.22186): -2.63 | Gi1 hCB1 response (hCB1; Log [Compound] (M) -8.39794): -2.8987 | Gi1 hCB1 response (hCB1; Log [Compound] (M) -8.68787): 4.689 | Gi1 hCB1 response (hCB1; Log [Compound] (M) -9.15521): 0.03327 | Gi1 hCB1 response (hCB1; Log [Compound] (M) -9.61989): -4.421 | Gi1 hCB1 response (hCB1; Log [Compound] (M) -10.0969): -3.391 | Gi1 hCB1 response (hCB1; Log [Compound] (M) -10.5529): -11.5156 | Gi1 hCB1 response (hCB1; Log [Compound] (M) -11.0177): -16.4171 | Gi1 hCB1 response (hCB1; Log [Compound] (M) -11.4949): -6.8826 | Gi1 hCB1 response (hCB1; Log [Compound] (M) -11.9208): -5.674 | Gi1 hCB1 response (hCB1; Log [Compound] (M) -12.3979): -5.204 | Gi1 hCB1 response (hCB1; Log [Compound] (M) -12.8861): 5.741 | Gi1 hCB1 response (hCB1; Log [Compound] (M) -13, individual replicate values): -12.366 and -4.51 | Gi1 hCB1 (hCB1; Log [Compound] (M) -4.22186): 89.2431 | GoB hCB1 (hCB1; Log [Compound] (M) -4.22186): 86.7412 | Gi1 hCB1 (hCB1; Log [Compound] (M) -4.63927): 88.0098 | GoB hCB1 (hCB1; Log [Compound] (M) -4.63927): 85.932 | Gi1 hCB1 (hCB1; Log [Compound] (M) -5.05788): 83.6623 | GoB hCB1 (hCB1; Log [Compound] (M) -5.05788): 87.6943 | Gi1 hCB1 (hCB1; Log [Compound] (M) -5.47381): 80.8256 | GoB hCB1 (hCB1; Log [Compound] (M) -5.47381): 88.7014 | Gi1 hCB1 (hCB1; Log [Compound] (M) -5.89285): 71.5911 | GoB hCB1 (hCB1; Log [Compound] (M) -5.89285): 74.7104 | Gi1 hCB1 (hCB1; Log [Compound] (M) -6.31878): 53.785 | GoB hCB1 (hCB1; Log [Compound] (M) -6.31878): 55.1804 | Gi1 hCB1 (hCB1; Log [Compound] (M) -6.72585): 28.6559 | GoB hCB1 (hCB1; Log [Compound] (M) -6.72585): 28.2594 | Gi1 hCB1 (hCB1; Log [Compound] (M) -7.14267): 11.4665 | GoB hCB1 (hCB1; Log [Compound] (M) -7.14267): 15.0956 | Gi1 hCB1 (hCB1; Log [Compound] (M) -7.55284): 4.6215 | GoB hCB1 (hCB1; Log [Compound] (M) -7.55284): 3.137 | Gi1 hCB1 (hCB1; Log [Compound] (M) -8): 2.093 | GoB hCB1 (hCB1; Log [Compound] (M) -8): 2.004 | Gi1 hCB1 (hCB1; Log [Compound] (M) -8.22186): -0.06514 | GoB hCB1 (hCB1; Log [Compound] (M) -8.22186): -3.751 | Gi1 hCB1 (hCB1; Log [Compound] (M) -8.39794): 1.1836 | GoB hCB1 (hCB1; Log [Compound] (M) -8.39794): 1.464 | Gi1 hCB1 (hCB1; Log [Compound] (M) -8.68787): -1.113 | GoB hCB1 (hCB1; Log [Compound] (M) -8.68787): -5.28 | Gi1 hCB1 (hCB1; Log [Compound] (M) -9.15521): -0.1114 | GoB hCB1 (hCB1; Log [Compound] (M) -9.15521): -2.294 | Gi1 hCB1 (hCB1; Log [Compound] (M) -9.61989): 0.7519 | GoB hCB1 (hCB1; Log [Compound] (M) -9.61989): -1.629 | Gi1 hCB1 (hCB1; Log [Compound] (M) -10.0969): 0.8753 | GoB hCB1 (hCB1; Log [Compound] (M) -10.0969): -3.751 | Gi1 hCB1 (hCB1; Log [Compound] (M) -10.5529): 1.9236 | GoB hCB1 (hCB1; Log [Compound] (M) -10.5529): -0.9636 | Gi1 hCB1 (hCB1; Log [Compound] (M) -11.0177): -0.281 | GoB hCB1 (hCB1; Log [Compound] (M) -11.0177): -2.384 | Gi1 hCB1 (hCB1; Log [Compound] (M) -11.4949): -0.1268 | GoB hCB1 (hCB1; Log [Compound] (M) -11.4949): -1.305 | Gi1 hCB1 (hCB1; Log [Compound] (M) -11.9208): -0.1885 | GoB hCB1 (hCB1; Log [Compound] (M) -11.9208): 1.266 | Gi1 hCB1 (hCB1; Log [Compound] (M) -12.3979): 1.723 | GoB hCB1 (hCB1; Log [Compound] (M) -12.3979): 0.7628 | Gi1 hCB1 (hCB1; Log [Compound] (M) -12.8861): 0.4436 | GoB hCB1 (hCB1; Log [Compound] (M) -12.8861): -2.798 | Gi1 hCB1 (hCB1; Log [Compound] (M) -13): 0.1969 and 0.2278 | GoB hCB1 (hCB1; Log [Compound] (M) -13): 1.32 and 1.356 | pEC50 [95% CI] (hCB1; hCB1 Gi1): 6.5 [6.4 – 6.5] | Emax [95% CI] (hCB1; hCB1 Gi1): 87 [86 – 88] | pEC50 [95% CI] (hCB1; hCB1 GoB): 6.5 [6.4 – 6.6] | Emax [95% CI] (hCB1; hCB1 GoB): 90 [87 – 91] | pEC50 [95% CI] (hCB1; hCB1 Gz): 6.1 [5.9 – 6.4] | Emax [95% CI] (hCB1; hCB1 Gz): 151 [130 –172] | EC50 (hCB1; hCB1 Gi1): 345 nM | EC50 (hCB1; hCB1 GoB): 310 nM | EC50 (hCB1; hCB1 Gz): 728 nM
